Measurements published in ChEMBL document CHEMBL4715862, “Anti-HIV Tigliane Diterpenoids from Wikstroemia scytophylla” (J Nat Prod, 2020).
pIC50: −log10 of the molar value.

Experiments:
[1] = tested on: Human immunodeficiency virus 1; assay: Antiviral activity against HIV-1 NL4-3 infected in human MT4 cells assessed as reduction in p24 gag protein expression incubated for 48 hrs by ELISA; format: functional, organism-based; conditions: Human immunodeficiency virus 1, NL4-3, MT4, 48 h
[2] = Cytotoxicity against human MT4 cells assessed as reduction in cell viability after 48 hrs by CellTiter-Glo assay; format: cell-based
[3] = Selectivity ratio of CC50 for cytotoxicity against human MT4 cells to IC50 for antiviral activity against HIV-1 NL4-3 infected in human MT4 cells; format: toxicity, cell-based; conditions: read-out: Ratio CC50/IC50

For `CCCCCCCC(=O)O[C@@]12[C@H](OC(=O)CCCCC)[C@@H](C)[C@@]3(O)[C@@H](C(=O)C(CO)=C[C@]4(O)C(=O)C(C)=C[C@@H]34)[C@@H]1C2(C)C`, the pIC50 [1] was less than 6.79 and the CC50 at 48 h [2] was greater than 164 nM.
`CCCCCCCC(=O)O[C@@]12[C@H](OC(=O)c3ccccc3)[C@@H](C)[C@@]3(O)[C@H]([C@@H]1C2(C)C)[C@@H](O)C(CO)=C[C@]1(O)C(=O)C(C)=C[C@@H]31` showed a pIC50 [1] of less than 6.79 and a CC50 at 48 h [2] greater than 164 nM.
Compound `CCCCCCCC(=O)O[C@@]12[C@H](OC(=O)c3ccccc3)[C@@H](C)[C@@]3(O)[C@H]([C@@H]1C2(C)C)[C@@H](OO)C(CO)=C[C@]1(O)C(=O)C(C)=C[C@@H]31` has a selectivity ratio [3] of less than 5.
Compound `CCCCCCCC(=O)O[C@@]12[C@H](OC(=O)c3ccccc3)[C@@H](C)[C@]3(O)[C@@H]4C=C(C)C(=O)[C@@]4(O)[C@H](O)C(CO)=C[C@H]3[C@@H]1C2(C)C` has a pIC50 [1] of 7.89 and a CC50 at 48 h [2] greater than 164 nM.
Compound `CCCCCCCC(=O)O[C@@]12[C@H](OC(=O)c3ccccc3)[C@@H](C)[C@@]3(O)[C@@H](C(=O)C(CO)=C[C@]4(O)C(=O)C(C)=C[C@@H]34)[C@@H]1C2(C)C` has a pIC50 [1] of 8.42 and a CC50 at 48 h [2] greater than 164 nM.
`CCCCCCCC(=O)O[C@@]12[C@H](OC(=O)c3ccccc3)[C@@H](C)[C@@]3(O)C(=C[C@](O)(CO)C[C@]4(O)C(=O)C(C)=C[C@@H]34)[C@@H]1C2(C)C` gave a pIC50 [1] of less than 6.79 and a CC50 at 48 h [2] greater than 164 nM.
In the case of `C=C(C)[C@]12C[C@@H](COC(=O)c3ccccc3)[C@@]34O[C@]5(O[C@@H]1[C@@H]3[C@@H]1O[C@]1(CO)[C@@H](O)[C@@]1(O)[C@H]4[C@H]([C@H](C)[C@@H]1OC(=O)c1ccccc1)[C@H](C)CCCCCC[C@H]5O)O2`, the pIC50 [1] was 10.15 and the CC50 at 48 h [2] was greater than 5 nM.
